Test results taken from paper PMC10590419, “Structural and mechanistic insights into the inhibition of respiratory syncytial virus polymerase by a non-nucleoside inhibitor” (Communications Biology, 2023).

Legend:
[1] = system: PIV-1 (recombinant Washington/20993/1964-derived strain encoding GFP); format: cell-based, parainfluenza virus type 1
[2] = biological target: T1, Human DNA polymerase alpha (Homo sapiens, UniProt P09884); assay: DNA-dependent DNA polymerase activity; format: biochemical; settings: DNA Pol α
T1 construct: purchased CHIMERx
T1 sequence (P09884 1-1462): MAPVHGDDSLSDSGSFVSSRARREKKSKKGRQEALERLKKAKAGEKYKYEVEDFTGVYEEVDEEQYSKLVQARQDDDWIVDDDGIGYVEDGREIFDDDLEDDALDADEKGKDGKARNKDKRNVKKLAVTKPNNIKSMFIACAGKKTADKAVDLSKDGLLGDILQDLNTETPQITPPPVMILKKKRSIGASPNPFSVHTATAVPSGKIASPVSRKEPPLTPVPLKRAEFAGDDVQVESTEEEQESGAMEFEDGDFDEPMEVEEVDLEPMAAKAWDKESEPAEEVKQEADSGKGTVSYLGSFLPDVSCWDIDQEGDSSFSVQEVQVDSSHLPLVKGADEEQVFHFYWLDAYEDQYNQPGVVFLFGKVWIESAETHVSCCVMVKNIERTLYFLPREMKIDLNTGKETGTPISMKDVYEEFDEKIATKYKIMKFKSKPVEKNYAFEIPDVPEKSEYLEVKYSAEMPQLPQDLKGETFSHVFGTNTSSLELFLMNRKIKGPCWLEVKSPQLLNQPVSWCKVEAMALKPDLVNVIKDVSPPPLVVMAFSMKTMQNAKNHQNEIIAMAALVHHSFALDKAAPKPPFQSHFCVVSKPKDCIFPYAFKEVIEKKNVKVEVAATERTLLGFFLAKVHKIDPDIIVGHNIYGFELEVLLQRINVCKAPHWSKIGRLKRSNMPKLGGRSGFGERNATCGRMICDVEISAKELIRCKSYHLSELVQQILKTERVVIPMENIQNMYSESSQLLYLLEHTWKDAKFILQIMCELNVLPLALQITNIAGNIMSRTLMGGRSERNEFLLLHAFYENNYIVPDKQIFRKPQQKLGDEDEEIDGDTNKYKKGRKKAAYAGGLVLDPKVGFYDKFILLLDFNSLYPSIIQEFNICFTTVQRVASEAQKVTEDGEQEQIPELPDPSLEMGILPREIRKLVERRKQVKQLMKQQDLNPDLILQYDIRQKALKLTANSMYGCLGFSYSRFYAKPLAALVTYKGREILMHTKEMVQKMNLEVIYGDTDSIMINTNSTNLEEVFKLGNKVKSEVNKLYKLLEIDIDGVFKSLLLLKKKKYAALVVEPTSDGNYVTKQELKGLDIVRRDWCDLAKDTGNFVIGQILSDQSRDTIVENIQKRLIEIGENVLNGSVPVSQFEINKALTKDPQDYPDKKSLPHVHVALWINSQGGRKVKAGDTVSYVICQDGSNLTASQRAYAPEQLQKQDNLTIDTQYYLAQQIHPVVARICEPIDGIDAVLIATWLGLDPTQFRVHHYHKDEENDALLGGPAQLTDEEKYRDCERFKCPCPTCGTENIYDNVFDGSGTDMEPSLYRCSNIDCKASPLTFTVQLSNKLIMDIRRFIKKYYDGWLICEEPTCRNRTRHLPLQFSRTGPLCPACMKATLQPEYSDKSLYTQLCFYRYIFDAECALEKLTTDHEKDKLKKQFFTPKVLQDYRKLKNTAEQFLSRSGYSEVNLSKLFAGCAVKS
Description: to the method described previously 1. A 25 nM solution of RSV MTase-CTD protein or RSV L+P complex was incubated with 0.7 µM or 1.8 µM purified synthetic RNA 5’-Gppp […]
[…] (RSV9) for the MTase-CTD or L+P complex, respectively; 2 µM or 0.17 µM S-adenosyl methionine (SAM) for the MTase-CTD or L–P complex, respectively; and 0.1 µM or 0.8 µM 3H-SAM (Perkin Elmer) for the MTase-CTD or L–P complex, respectively; in 50 mM Tris-HCl pH 8.0. Compounds, previously dissolved in DMSO were added at a final concentration of 50 µM or 200 µM. After 3 h incubation at 30°C, reactions were quenched by a 20-fold dilution in ice cold water. Samples were transferred to DEAE filtermats (Perkin Elmer) using a Filtermat Harvester (Packard Instruments). The RNA-retaining mats were washed twice with 10 mM ammonium formate pH 8.0, twice with water and once with ethanol. They were then soaked with scintillation fluid (Perkin Elmer), and 3H-methyl transfer to the RNA substrates was determined using a Wallac MicroBeta TriLux Liquid Scintillation Counter.
Cellular polymerase assays
DNA-dependant DNA polymerase (DdDp) activity
Human DNA polymerases alpha (CHIMERx) at 5 U/ml, beta (CHIMERx) at 0.5 U/ml and gamma (Abcam) at 0.1 mg/ml were incubated with the tested inhibitors at specified concentrations, and a reaction mix composed of 62 µg/ml activated calf thymus DNA, dGTP (2 µM), dATP (2 µM), dCTP (2 µM), [ 3H]dTTP (0.05 µCi/µl), 0.1 mg/ml BSA and a buffer composed of Tris-HCl pH 8 (50 mM), MgCl 2 (5 mM), KCl (60 mM), and DTT (4 mM.) in a total volume of 50 µl. After 2 hours incubation at 30°C, reaction was terminated by addition of 60 µl of a chilled stop solution composed of 20% (w/v) TCA with 0.5 mM ATP. […] Radioactivity was measured via liquid scintillation counting (MicroScint-20, 40µl) on a TriLux apparatus. […]
The RNA transcription activity of human mitochondrial RNA polymerase (POLRMT) was measured by the incorporation of radioactively labeled nucleotides by POLRMT into acid-insoluble RNA products as described previously 2. […]

in vitro = settings: rhesus monkey

COc1cc(C(=O)NC[C@](O)(c2cc(C(C)(C)O)c(F)c(-c3ccc(F)cc3)n2)C(F)(F)F)cc2cc(C)nnc12 [JNJ-8003]
inhibition (in words) [1]: negligible inhibition
IC50 [2]: > 100 µM
CC50 (in vitro; Median CC50, LLC-MK2, parallel to HMPV assay): 14 µM
CC50 (in vitro; Median CC50, LLC-MK2, parallel to PIV-1 assay): 18 µM
CC50 (in vitro; Median CC50, LLC-MK2, parallel to PIV-3 assay): 19 µM
